Reference: the NIST ThermoML archive (doi:10.1016/j.fluid.2016.03.013)

Assay: xn = mol fraction of the nth substance listed
Settings: for surface tension liquid-gas / mass density: draining crucible method; for viscosity / mass density: 101 kPa, Liquid; for viscosity: Draining crucible

[Al] [aluminum] + [Zn]
Settings | mass density, x1 = 0.25 [kg/m3] | mass density, x1 = 0.51 [kg/m3] | mass density, x1 = 0.83 [kg/m3] | surface tension liquid-gas, x1 = 0.25 [mN/m] | surface tension liquid-gas, x1 = 0.51 [mN/m] | surface tension liquid-gas, x1 = 0.83 [mN/m] | viscosity, x1 = 0.25 [mPa·s] | viscosity, x1 = 0.51 [mPa·s] | viscosity, x1 = 0.83 [mPa·s]
873 K | 5201 | 4204 | – | 802.1 | 830.8 | – | 1.917 | 1.633 | –
923 K | 5139 | 4138 | 2720 | 789.4 | 819.6 | 858.7 | 1.791 | 1.542 | 1.356
973 K | 5089 | 4089 | 2680 | 779.3 | 806.5 | 848.1 | 1.696 | 1.448 | 1.271
1023 K | 5011 | 3995 | 2530 | 763.8 | 795.8 | 836.9 | 1.643 | 1.405 | 1.222
